The data set is described as follows: in vivo. The note with it: for concentration at 1 day: day 1. The source says:
General Protocol for Prodrugs Rat PK Studies Conducted at ChemPartner, China
A total of three naïve male Wistar Han rats, 200-250 g, were received from Beijing VR Laboratory Animal Co. LTD. Following an acclimation period, the animals were assigned to the study based on acceptable health as determined by a staff veterinarian and catheter patency. Fasting of the animals before or after dosing was not required.
On Day 1, each animal received a single intramuscular injection of prepared test article at a target dose level of 20 mg/kg equivalent of EFdA and at a dose volume of 2 mL/kg. The injection sites were at gastrocnemius and identified with an indelible marker for daily monitoring during the study. The animals were manually restrained for dosing and were not sedated. The dose suspension was mixed well by inversion before each dose to ensure homogeneity. […] In addition, all animals are monitored twice daily by the veterinary staff for clinical abnormalities.
Blood samples were collected from the study animals as detailed in the sample collection Table 6 below
Each blood sample for PK (200 μL) was collected from tail vein. The blood was transferred to a tube containing NaF/Na2EDTA anticoagulant and inverted several times to mix. Draw 150 μL whole blood from the tube, add 150 uL 100 mM ammonium acetate, pH 4 buffer and mix well. The resulting blood samples were transferred to individual polypropylene tubes and immediately placed on dry ice until storage at nominally −80° C. prior to LC-MS/MS analysis.

The mark [1] stands for this setting: day 77, single IM Example 2A 56 mg/kg.
Where [2] appears, read: day 84, single IM Example 2A 56 mg/kg.

Three compounds from patent publication US20230151049A1, “Compounds Useful in HIV Therapy” (priority 2020, published 2023) can be followed below.

Read-outs that look alike come from different tables or passages of the source.

In the case of `C#C[C@]1(COP(=O)(N[C@@H](C)C(=O)OC(CCCCCCCCCC)CCCCCCCCCC)Oc2ccccc2)O[C@@H](n2cnc3c(N)nc(F)nc32)C[C@@H]1O` (single isomer, unassigned) [Example 37A], the “Mean concentration of EFdA” value runs as follows: (day 21, single IM Example 37A 56 mg/kg) “BQL (BQL = below quantification limit, 0.3 ng/ml for both)”; (day 28, single IM Example 37A 56 mg/kg) “BQL (BQL = below quantification limit, 0.3 ng/ml for both)”; (day 35, single IM Example 37A 56 mg/kg) “BQL (BQL = below quantification limit, 0.3 ng/ml for both)”; (day 42, single IM Example 37A 56 mg/kg) “BQL (BQL = below quantification limit, 0.3 ng/ml for both)”; (day 49, single IM Example 37A 56 mg/kg) “BQL (BQL = below quantification limit, 0.3 ng/ml for both)”; (day 56, single IM Example 37A 56 mg/kg) “BQL (BQL = below quantification limit, 0.3 ng/ml for both)”. The “Mean concentration of EFdA” value is listed as “BQL (BQL = below quantification limit, 0.3 ng/ml for both)” (day 63, single IM Example 37A 56 mg/kg); “BQL (BQL = below quantification limit, 0.3 ng/ml for both)” (day 70, single IM Example 37A 56 mg/kg); “BQL (BQL = below quantification limit, 0.3 ng/ml for both)” (day 77, single IM Example 37A 56 mg/kg); “BQL (BQL = below quantification limit, 0.3 ng/ml for both)” (day 84, single IM Example 37A 56 mg/kg). Besides, the concentration at 1 day (male, Wistar Han, rat, in vivo, single IM Example 37A 56 mg/kg, read-out: Mean concentration of Example 37A) amounted to 17.9 ng/mL. In addition, for the setting “male, Wistar Han, rat, in vivo, day 7, single IM Example 37A 56 mg/kg, read-out: Mean concentration of Example 37A”, the concentration at 7 day was determined as 3.58 ng/mL. Also, the concentration at 14 day (male, Wistar Han, rat, in vivo, day 14, single IM Example 37A 56 mg/kg, read-out: Mean concentration of Example 37A) was 3.8 ng/mL. The concentration at 21 day (male, Wistar Han, rat, in vivo, day 21, single IM Example 37A 56 mg/kg, read-out: Mean concentration of Example 37A) is 5.16 ng/mL. Where the note is “male, Wistar Han, rat, in vivo, day 28, single IM Example 37A 56 mg/kg, read-out: Mean concentration of Example 37A”, the concentration at 28 day came out at 4.16 ng/mL. Also, under “male, Wistar Han, rat, in vivo, day 35, single IM Example 37A 56 mg/kg, read-out: Mean concentration of Example 37A”, the concentration at 35 day was 4.95 ng/mL. Besides, where the note is “male, Wistar Han, rat, in vivo, day 42, single IM Example 37A 56 mg/kg, read-out: Mean concentration of Example 37A”, the concentration at 42 day was determined as 5.29 ng/mL. Also, the concentration at 49 day (male, Wistar Han, rat, in vivo, day 49, single IM Example 37A 56 mg/kg, read-out: Mean concentration of Example 37A) amounted to 4.89 ng/mL. Besides, where the note is “male, Wistar Han, rat, in vivo, day 56, single IM Example 37A 56 mg/kg, read-out: Mean concentration of Example 37A”, the concentration at 56 day stood at 4.94 ng/mL. Further, the concentration at 63 day (male, Wistar Han, rat, in vivo, day 63, single IM Example 37A 56 mg/kg, read-out: Mean concentration of Example 37A) came out at 4.46 ng/mL. For the setting “male, Wistar Han, rat, in vivo, day 70, single IM Example 37A 56 mg/kg, read-out: Mean concentration of Example 37A”, the concentration at 70 day was found to be 3.78 ng/mL. The concentration at 77 day (male, Wistar Han, rat, in vivo, day 77, single IM Example 37A 56 mg/kg, read-out: Mean concentration of Example 37A) worked out at 3.46 ng/mL. The concentration at 84 day (male, Wistar Han, rat, in vivo, day 84, single IM Example 37A 56 mg/kg, read-out: Mean concentration of Example 37A) came out at 3.32 ng/mL.
Consider `C#C[C@]1(COP(=O)(N[C@@H](Cc2cc(F)cc(F)c2)C(=O)OCCCCCCCCCCCCCCCCCCCCCC)Oc2ccccc2)O[C@@H](n2cnc3c(N)nc(F)nc32)C[C@@H]1O` (single isomer, unassigned) [Example 42B], for which the “Mean concentration of EFdA” value was “BQL (BQL = below quantification limit, 0.3 ng/mL for both)” (day 7, single IM Example 42B 64 mg/kg); “BQL (BQL = below quantification limit, 0.3 ng/mL for both)” (day 14, single IM Example 42B 64 mg/kg); “BQL (BQL = below quantification limit, 0.3 ng/mL for both)” (day 21, single IM Example 42B 64 mg/kg); “BQL (BQL = below quantification limit, 0.3 ng/mL for both)” (day 28, single IM Example 42B 64 mg/kg); “BQL (BQL = below quantification limit, 0.3 ng/mL for both)” (day 35, single IM Example 42B 64 mg/kg); “BQL (BQL = below quantification limit, 0.3 ng/mL for both)” (day 42, single IM Example 42B 64 mg/kg). Moreover, the “Mean concentration of EFdA” value reads like this: (day 49, single IM Example 42B 64 mg/kg) “BQL (BQL = below quantification limit, 0.3 ng/mL for both)”; (day 56, single IM Example 42B 64 mg/kg) “BQL (BQL = below quantification limit, 0.3 ng/mL for both)”; (day 63, single IM Example 42B 64 mg/kg) “BQL (BQL = below quantification limit, 0.3 ng/mL for both)”; (day 70, single IM Example 42B 64 mg/kg) “BQL (BQL = below quantification limit, 0.3 ng/mL for both)”; (day 77, single IM Example 42B 64 mg/kg) “BQL (BQL = below quantification limit, 0.3 ng/mL for both)”; (day 84, single IM Example 42B 64 mg/kg) “BQL (BQL = below quantification limit, 0.3 ng/mL for both)”.
On to `C#C[C@]1(COP(=O)(N[C@@H](Cc2ccccc2)C(=O)OCCCCCCCCCCCCCCCC)Oc2ccccc2)O[C@@H](n2cnc3c(N)nc(F)nc32)C[C@@H]1O` (single isomer, unassigned) [Example 2A], for which the “Mean concentration of Example 2A” value is, setting by setting: (day 42, single IM Example 2A 56 mg/kg) “BQL”; (day 49, single IM Example 2A 56 mg/kg) “BQL”; (day 70, single IM Example 2A 56 mg/kg) “BQL”; under setting [1], “BQL”; under setting [2], “BQL”. Moreover, the “Mean concentration of EFdA” value reads like this: under setting [1], “BQL (BQL = below quantification limit, o.5 ng/mL for Example 2A and 0.1-0.3 ng/mL for EFdA)”; under setting [2], “BQL (BQL = below quantification limit, o.5 ng/mL for Example 2A and 0.1-0.3 ng/mL for EFdA)”. For the setting “male, Wistar Han, rat, in vivo, single IM Example 2A 56 mg/kg, read-out: Mean concentration of Example 2A”, the concentration at 1 day came out at 3.54 ng/mL. Also, the concentration at 7 day (male, Wistar Han, rat, in vivo, day 7, single IM Example 2A 56 mg/kg, read-out: Mean concentration of Example 2A) was found to be 1.35 ng/mL. Moreover, the concentration at 14 day (male, Wistar Han, rat, in vivo, day 14, single IM Example 2A 56 mg/kg, read-out: Mean concentration of Example 2A) was 3.35 ng/mL. Also, where the note is “male, Wistar Han, rat, in vivo, day 21, single IM Example 2A 56 mg/kg, read-out: Mean concentration of Example 2A”, the concentration at 21 day stood at 2.42 ng/mL. Further, the concentration at 28 day (male, Wistar Han, rat, in vivo, day 28, single IM Example 2A 56 mg/kg, read-out: Mean concentration of Example 2A) was determined as 4.08 ng/mL. For the same compound, under “male, Wistar Han, rat, in vivo, day 35, single IM Example 2A 56 mg/kg, read-out: Mean concentration of Example 2A”, the concentration at 35 day turned out to be 4.53 ng/mL. Besides, the concentration at 56 day (male, Wistar Han, rat, in vivo, day 56, single IM Example 2A 56 mg/kg, read-out: Mean concentration of Example 2A) worked out at 1.14 ng/mL. For the same compound, the concentration at 63 day (male, Wistar Han, rat, in vivo, day 63, single IM Example 2A 56 mg/kg, read-out: Mean concentration of Example 2A) is 1.05 ng/mL.
